Experiments:
Assay type in all cases: cell-based
IKZF2 (Helios) [1] = biological target: T1, IKZF2 (Helios) (Homo sapiens, UniProt Q96SW2+Q9UKS7); experiment: IKZF2 reporter degradation assay (HEK 293T IKZF2-mNeonGreen reporter cell line); conditions: HEK-293T, 24 h, @ 1 μM, HEK 293T IKZF2-mNeonGreen reporter, 24 hours incubation
T1 construct: Leu-Asp junction (codons ctcgac before the linker); mScarlet (behind P2A) (C, cleaved yes); expressed in transfected cells
How it was run: (§1)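 DC50 values come from four-parameter logistic regression of percent mNeonGreen-positive cells, imaged with mScarlet-based segmentation after 24 h compound exposure at 37° C. Quadruplicate wells had at most 0.5% DMSO. Reporters are C-terminal IKZF-mNeonGreen fusions with P2A-mScarlet, stably expressed in clonal HEK 293T lines.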

IKZF2 (Helios) [2] = biological target: T2, IKZF2 (Helios) (Homo sapiens, UniProt Q9UKS7); experiment: as above; conditions: HEK 293T IKZF2-mNeonGreen reporter, 24 hours incubation
T2 construct: Leu-Asp junction (codons ctcgac before the linker); mScarlet (behind P2A) (C, cleaved yes); expressed in transfected cells
T2 sequence (Q9UKS7 whole entry): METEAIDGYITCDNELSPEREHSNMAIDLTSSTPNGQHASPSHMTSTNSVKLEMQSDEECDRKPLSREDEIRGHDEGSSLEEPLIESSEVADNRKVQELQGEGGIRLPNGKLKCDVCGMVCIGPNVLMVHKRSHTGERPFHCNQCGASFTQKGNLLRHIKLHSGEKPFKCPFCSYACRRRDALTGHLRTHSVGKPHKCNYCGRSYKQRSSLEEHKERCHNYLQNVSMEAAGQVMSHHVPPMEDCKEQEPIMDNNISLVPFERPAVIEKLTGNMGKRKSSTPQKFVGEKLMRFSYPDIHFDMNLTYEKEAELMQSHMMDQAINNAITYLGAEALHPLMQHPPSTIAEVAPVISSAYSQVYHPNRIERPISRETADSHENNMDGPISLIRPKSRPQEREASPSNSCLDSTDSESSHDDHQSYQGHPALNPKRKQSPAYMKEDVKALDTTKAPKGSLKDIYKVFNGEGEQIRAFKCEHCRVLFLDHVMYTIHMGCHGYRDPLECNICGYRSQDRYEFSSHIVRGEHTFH
T2 sequence (Q96SW2 whole entry, further chain): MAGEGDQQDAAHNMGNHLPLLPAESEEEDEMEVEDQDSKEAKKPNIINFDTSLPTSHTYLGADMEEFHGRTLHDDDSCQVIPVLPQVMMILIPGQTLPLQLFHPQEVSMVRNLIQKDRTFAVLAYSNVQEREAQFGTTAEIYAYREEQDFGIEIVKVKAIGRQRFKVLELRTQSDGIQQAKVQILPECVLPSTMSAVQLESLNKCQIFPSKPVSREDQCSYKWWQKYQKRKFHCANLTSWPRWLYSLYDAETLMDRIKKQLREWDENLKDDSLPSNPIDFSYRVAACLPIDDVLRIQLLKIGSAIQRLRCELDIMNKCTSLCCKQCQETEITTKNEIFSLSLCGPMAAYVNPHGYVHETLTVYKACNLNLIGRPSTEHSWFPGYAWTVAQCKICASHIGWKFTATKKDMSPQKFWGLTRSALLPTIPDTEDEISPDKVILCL
T2 sequence (Q16531 whole entry partner): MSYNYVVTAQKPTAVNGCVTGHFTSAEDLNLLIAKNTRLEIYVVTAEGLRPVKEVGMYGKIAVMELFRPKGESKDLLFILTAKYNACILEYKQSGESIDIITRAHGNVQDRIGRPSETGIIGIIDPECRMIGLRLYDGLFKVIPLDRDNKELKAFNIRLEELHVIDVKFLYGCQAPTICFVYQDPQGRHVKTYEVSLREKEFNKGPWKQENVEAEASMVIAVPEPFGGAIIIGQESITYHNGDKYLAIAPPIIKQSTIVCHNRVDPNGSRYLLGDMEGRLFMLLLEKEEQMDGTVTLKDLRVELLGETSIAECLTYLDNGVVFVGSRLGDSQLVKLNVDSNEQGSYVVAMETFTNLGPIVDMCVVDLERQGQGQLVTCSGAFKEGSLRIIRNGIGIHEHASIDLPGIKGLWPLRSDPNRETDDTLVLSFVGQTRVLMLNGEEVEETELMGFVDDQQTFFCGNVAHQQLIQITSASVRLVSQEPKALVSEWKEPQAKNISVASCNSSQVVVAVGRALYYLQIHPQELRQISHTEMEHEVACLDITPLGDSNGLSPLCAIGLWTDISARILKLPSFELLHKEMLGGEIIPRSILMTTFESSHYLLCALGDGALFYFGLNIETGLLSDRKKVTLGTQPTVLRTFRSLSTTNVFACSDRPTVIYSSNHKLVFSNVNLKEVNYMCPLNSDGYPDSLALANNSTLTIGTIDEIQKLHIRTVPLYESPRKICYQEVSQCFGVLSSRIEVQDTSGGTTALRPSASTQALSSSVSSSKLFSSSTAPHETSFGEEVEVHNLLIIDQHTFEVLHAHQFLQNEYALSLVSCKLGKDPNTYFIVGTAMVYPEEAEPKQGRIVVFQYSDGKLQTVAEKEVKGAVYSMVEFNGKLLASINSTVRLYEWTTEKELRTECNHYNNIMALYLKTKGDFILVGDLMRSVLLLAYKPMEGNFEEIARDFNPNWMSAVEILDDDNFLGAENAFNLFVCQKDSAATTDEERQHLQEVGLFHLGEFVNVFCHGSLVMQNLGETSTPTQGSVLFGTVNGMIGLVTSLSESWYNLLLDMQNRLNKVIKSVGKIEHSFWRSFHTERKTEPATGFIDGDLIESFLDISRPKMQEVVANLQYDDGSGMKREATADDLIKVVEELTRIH
How it was run: as §1

IKZF1 (Ikaros) = biological target: T3, IKZF1 (Ikaros) (Homo sapiens, UniProt Q13422); experiment: IKZF1 reporter degradation assay (HEK 293T IKZF1-mNeonGreen reporter cell line); conditions: HEK 293T IKZF1-mNeonGreen reporter, 24 hours incubation
T3 construct: mScarlet (behind P2A) (C, cleaved yes); expressed in transfected cells
T3 sequence (Q96SW2 whole entry partner): as the sequence (Q96SW2 whole entry, further chain) above
T3 sequence (Q16531 whole entry partner): as the sequence (Q16531 whole entry partner) above
T3 sequence (Q13422 whole entry): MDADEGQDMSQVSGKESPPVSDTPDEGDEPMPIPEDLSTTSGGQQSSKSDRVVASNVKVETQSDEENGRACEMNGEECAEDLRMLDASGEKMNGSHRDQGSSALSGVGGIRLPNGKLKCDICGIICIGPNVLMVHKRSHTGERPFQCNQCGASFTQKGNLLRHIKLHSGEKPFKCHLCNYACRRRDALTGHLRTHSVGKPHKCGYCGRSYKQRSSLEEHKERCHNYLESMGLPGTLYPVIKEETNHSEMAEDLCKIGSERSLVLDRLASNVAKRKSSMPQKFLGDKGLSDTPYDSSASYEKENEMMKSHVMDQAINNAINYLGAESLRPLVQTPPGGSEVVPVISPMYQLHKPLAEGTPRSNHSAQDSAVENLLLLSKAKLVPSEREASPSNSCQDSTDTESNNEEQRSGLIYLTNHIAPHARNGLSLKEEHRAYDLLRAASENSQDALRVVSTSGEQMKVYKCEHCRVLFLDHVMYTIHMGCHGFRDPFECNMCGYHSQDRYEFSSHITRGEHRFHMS
How it was run: as §1

IKZF3 (Aiolos) = biological target: T4, IKZF3 (Aiolos) (Homo sapiens, UniProt Q9UKT9); experiment: IKZF3 reporter degradation assay (HEK 293T IKZF3-mNeonGreen reporter cell line); conditions: HEK 293T IKZF3-mNeonGreen reporter, 24 hours incubation; for inhibition at 1 µM: HEK-293T, 24 h
T4 construct: Leu-Asp junction (codons ctcgac before the linker); mScarlet (behind P2A) (C, cleaved yes); expressed in transfected cells
T4 sequence (Q96SW2 whole entry partner): as the sequence (Q96SW2 whole entry, further chain) above
T4 sequence (Q16531 whole entry partner): as the sequence (Q16531 whole entry partner) above
T4 sequence (Q9UKT9 whole entry): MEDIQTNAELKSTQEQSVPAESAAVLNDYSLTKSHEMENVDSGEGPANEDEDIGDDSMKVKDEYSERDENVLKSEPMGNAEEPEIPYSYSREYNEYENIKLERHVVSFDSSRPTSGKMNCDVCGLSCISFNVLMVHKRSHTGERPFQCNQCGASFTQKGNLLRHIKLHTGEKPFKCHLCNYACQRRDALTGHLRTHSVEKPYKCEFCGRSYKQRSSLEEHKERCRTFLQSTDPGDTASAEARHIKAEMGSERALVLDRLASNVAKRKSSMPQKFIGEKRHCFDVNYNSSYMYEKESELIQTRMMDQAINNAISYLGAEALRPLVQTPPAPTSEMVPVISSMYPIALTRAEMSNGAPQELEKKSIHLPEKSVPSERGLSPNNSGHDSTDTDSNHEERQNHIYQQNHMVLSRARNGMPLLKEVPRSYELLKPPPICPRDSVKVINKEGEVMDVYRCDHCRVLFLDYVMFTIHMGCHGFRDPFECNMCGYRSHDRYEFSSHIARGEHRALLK
How it was run: as §1

T1 sequence (Q9UKS7 whole entry): as the sequence (Q9UKS7 whole entry) above
T1 sequence (Q96SW2 whole entry): as the sequence (Q96SW2 whole entry, further chain) above
T1 sequence (Q16531 whole entry partner): as the sequence (Q16531 whole entry partner) above

inhibition at 1 µM (IKZF2 (Helios) [1])	DC50 (IKZF2 (Helios) [2])	DC50 (IKZF1 (Ikaros))	DC50 (IKZF3 (Aiolos))	inhibition at 1 µM (IKZF3 (Aiolos))	Structure (SMILES)
82.5%	2 nM	> 30000 nM	13 nM	67.5%	CC12CC(C(=O)N3CCC(C4CN([C@H]5CCCC[C@@H]5Oc5ccc6c(c5)CN(C5CCC(=O)NC5=O)C6=O)C4)CC3)(C1)C2 (stereo partly drawn) [Compound 28-A, 3-(5-(((1S,2S)-2-(3-(1-(3-methylbicyclo[1.1.1]pentane-1-carbonyl)piperidin-4-yl)azetidin-1-yl)cyclohexyl)oxy)-1-oxoisoindolin-2-yl)piperidine-2,6-dione]
87.5%	4 nM	> 30000 nM	> 30000 nM	–	O=C1CCC(N2Cc3cc(O[C@H]4CCCC[C@@H]4N4CC(c5ccc6cccnc6c5)C4)ccc3C2=O)C(=O)N1 (stereo partly drawn) [Compound 87-B, 3-(1-oxo-5-(((1S,2S)-2-(3-(quinolin-7-yl)azetidin-1-yl)cyclohexyl)oxy)isoindolin-2-yl)piperidine-2,6-dione]
83.8%	5 nM	> 30000 nM	> 30000 nM	–	O=C1CCC(N2Cc3cc(O[C@H]4CCCC[C@@H]4N4CC(C5CCOCC5F)C4)ccc3C2=O)C(=O)N1 (stereo partly drawn) [Compound 55-A, 3-(5-(((1S,2S)-2-(3-(3-fluorotetrahydro-2H-pyran-4-yl)azetidin-1-yl)cyclohexyl)oxy)-1-oxoisoindolin-2-yl)piperidine-2,6-dione]
88.2%	1 nM	> 30000 nM	8070 nM	23.5%	CC1CC1C(=O)N1CCC(C2CN([C@H]3CCCC[C@@H]3Oc3ccc4c(c3)CN(C3CCC(=O)NC3=O)C4=O)C2)CC1 (stereo partly drawn) [Compound 35-A, 3-(5-(((1S,2S)-2-(3-(1-(2-methylcyclopropane-1-carbonyl)piperidin-4-yl)azetidin-1-yl)cyclohexyl)oxy)-1-oxoisoindolin-2-yl)piperidine-2,6-dione]
67.4%	28 nM	> 30000 nM	> 30000 nM	–	O=C1CCC(N2Cc3cc(O[C@H]4CCCC[C@@H]4N4CC(C5CCOC5)C4)ccc3C2=O)C(=O)N1 (stereo partly drawn) [Compound 14-A, 3-(1-oxo-5-(((1S,2S)-2-(3-(tetrahydrofuran-3-yl)azetidin-1-yl)cyclohexyl)oxy)isoindolin-2-yl)piperidine-2,6-dione]
88.4%	–	> 30000 nM	6 nM	60.8%	CC1(C(=O)N2CCC(C3CN([C@H]4CCCC[C@@H]4Oc4ccc5c(c4)CN(C4CCC(=O)NC4=O)C5=O)C3)CC2)CCCC1 (stereo partly drawn) [Compound 33-A, 3-(5-(((1S,2S)-2-(3-(1-(1-methylcyclopentane-1-carbonyl)piperidin-4-yl)azetidin-1-yl)cyclohexyl)oxy)-1-oxoisoindolin-2-yl)piperidine-2,6-dione]
88%	2 nM	> 30000 nM	544 nM	24.9%	O=C1CCC(N2Cc3cc(O[C@H]4CCCC[C@@H]4N4CC(C5CCN(C(=O)CC6CC6)CC5)C4)ccc3C2=O)C(=O)N1 (stereo partly drawn) [Compound 34-A, 3-(5-(((1S,2S)-2-(3-(1-(2-cyclopropylacetyl)piperidin-4-yl)azetidin-1-yl)cyclohexyl)oxy)-1-oxoisoindolin-2-yl)piperidine-2,6-dione]
88.2%	0.1 nM	> 30000 nM	61 nM	26.2%	CC1(C(=O)N2CCC(C3CN([C@H]4CCCC[C@@H]4Oc4ccc5c(c4)CN(C4CCC(=O)NC4=O)C5=O)C3)CC2)CC1 (stereo partly drawn) [Compound 31-A, 3-(5-(((1S,2S)-2-(3-(1-(1-methylcyclopropane-1-carbonyl)piperidin-4-yl)azetidin-1-yl)cyclohexyl)oxy)-1-oxoisoindolin-2-yl)piperidine-2,6-dione]
84.7%	1 nM	> 30000 nM	71 nM	24.1%	O=C1CCC(N2Cc3cc(O[C@H]4CCCC[C@@H]4N4CC(C5CCN(C(=O)C6CC(F)(F)C6)CC5)C4)ccc3C2=O)C(=O)N1 (stereo partly drawn) [Compound 32-A, 3-(5-(((1S,2S)-2-(3-(1-(3,3-difluorocyclobutane-1-carbonyl)piperidin-4-yl)azetidin-1-yl)cyclohexyl)oxy)-1-oxoisoindolin-2-yl)piperidine-2,6-dione]
85.4%	2 nM	> 30000 nM	> 30000 nM	–	O=C1CCC(N2Cc3cc(O[C@H]4CCCC[C@@H]4N4CC(C5CCN(S(=O)(=O)C6CCC6)CC5)C4)ccc3C2=O)C(=O)N1 (stereo partly drawn) [Compound 57-A, 3-(5-(((1S,2S)-2-(3-(1-(cyclobutylsulfonyl)piperidin-4-yl)azetidin-1-yl)cyclohexyl)oxy)-1-oxoisoindolin-2-yl)piperidine-2,6-dione]
83.2%	11 nM	> 30000 nM	> 30000 nM	–	CC1(C(=O)N2CCC(C3CN([C@H]4CCCC[C@@H]4Oc4ccc5c(c4)CN(C4CCC(=O)NC4=O)C5=O)C3)CC2)COC1 (stereo partly drawn) [Compound 29-A, 3-(5-(((1S,2S)-2-(3-(1-(3-methyloxetane-3-carbonyl)piperidin-4-yl)azetidin-1-yl)cyclohexyl)oxy)-1-oxoisoindolin-2-yl)piperidine-2,6-dione]
87.3%	1 nM	> 30000 nM	21 nM	31%	O=C1CCC(N2Cc3cc(O[C@H]4CCCC[C@@H]4N4CC(C5CCN(C(=O)C6(F)CC6)CC5)C4)ccc3C2=O)C(=O)N1 (stereo partly drawn) [Compound 42-A, 3-(5-(((1S,2S)-2-(3-(1-(1-fluorocyclopropane-1-carbonyl)piperidin-4-yl)azetidin-1-yl)cyclohexyl)oxy)-1-oxoisoindolin-2-yl)piperidine-2,6-dione]
84.4%	0.5 nM	> 30000 nM	14 nM	63.4%	N#CC1(C(=O)N2CCC(C3CN([C@H]4CCCC[C@@H]4Oc4ccc5c(c4)CN(C4CCC(=O)NC4=O)C5=O)C3)CC2)CCC1 (stereo partly drawn) [Compound 30-A, 1-(4-(1-((1S,2S)-2-((2-(2,6-dioxopiperidin-3-yl)-1-oxoisoindolin-5-yl)oxy)cyclohexyl)azetidin-3-yl)piperidine-1-carbonyl)cyclobutane-1-carbonitrile]
84.6%	8 nM	≥ 30000 nM	110 nM	44%	N#CC1(C(=O)N2CCC(C3CN([C@H]4CCCC[C@@H]4Oc4ccc5c(c4)CN(C4CCC(=O)NC4=O)C5=O)C3)CC2)CC1 (stereo partly drawn) [Compound 27-A, 1-(4-(1-((1S,2S)-2-((2-(2,6-dioxopiperidin-3-yl)-1-oxoisoindolin-5-yl)oxy)cyclohexyl)azetidin-3-yl)piperidine-1-carbonyl)cyclopropane-1-carbonitrile]
